Assays:
MDA-MB231 cells = test: MTT cell viability assay on MDA-MB231 cells; assay type: cell-based, human; details: MDA-MB231, 48 h, ± S. D.
Description: (§1) Human MDA-MB-231 (ER–/PR–/HER2–) and SK-BR-3 (ER–/PR–/HER2+) cells were obtained from American Type Culture Collection (Rockville, MD) and cultured in Dulbecco's Modified Essential Medium (DMEM, Gibco, Life Technologies) supplemented with 10% fetal bovine serum (FBS, Gibco, Life Technologies) and 1% penicillin–streptomycin (Gibco, Life Technologies). A17 cells were established from a spontaneous lobular carcinoma that arose in an FVB/neuT mouse (Galiè et al., [2005]), and maintained in DMEM plus 20% FBS and 1% penicillin-streptomycin. Cells were cultured at 37°C under humidified atmosphere with 5% CO2.
(§2) Stock solutions were prepared for each gold(I) compound (50 mM) using dimethyl sulfoxide (DMSO) (Sigma-Aldrich) as solvent. The effects of gold(I) compounds on SKBR3, A17 and MDA-MB231 cells viability were evaluated by seeding, respectively, 10, ^*10^3, 2.5 ^*10^3, 7, ^*10^3 cells/well in 96 wells plates in complete medium (DMEM supplemented with FBS) and compared to those of cisplatin. The day after, fresh medium containing vehicle alone (DMSO, 1 % v/v final concentration) or increasing concentrations of each compound ranging from 0.1 to 100 μM was added. Cell viability was determined using a MTT [3-(4,5-dimethylthiazol-2-yl)-2,5-diphenyl-2H-tetrazolium bromide Sigma Aldrich, St. Louis, MO] assay, which is based on the conversion of MTT to formazan crystals by mitochondrial enzymes, after 24, 48, and 72 h. The formazan deposits were dissolved in DMSO and the absorbance of each well was measured at 540 nm in Multiskan Ascent 96/384 Plate Reader. Each drug concentration was evaluated with 8 replicates and each experiment was repeated three times. At the end of the experiments a dose–response curve was plotted, and the IC50 concentrations were determined. […] Quantitative data are presented as means ± SEM. […]
(§3) IC50 values were calculated for each of the cell lines tested, by fitting the concentration-effect curves data obtained in the three experiments with the sigmoid-Emax model using nonlinear regression, weighted by the reciprocal of the square of the predicted effect.

BLBC tumors = system: BLBC tumors; set-up: method as in Gambini et al., 2018; details: ref Gambini et al., 2018; cited from earlier work
[1] = target: T1, dihydrofolate reductase (DHFR) (Homo sapiens, UniProt P00374); test: DHFR specific enzymatic activity in lysates of treated SKBR3 cells; assay type: cell-based; details: 6 μM (maximum inhibition)
T1 construct: Cell lysates were collected using Cell Culture Lysis Reagent; endogenous in cells; host or cells: MDA-MB231 and SKBR3 (human breast cancer cells)
T1 sequence (P00374 1-187): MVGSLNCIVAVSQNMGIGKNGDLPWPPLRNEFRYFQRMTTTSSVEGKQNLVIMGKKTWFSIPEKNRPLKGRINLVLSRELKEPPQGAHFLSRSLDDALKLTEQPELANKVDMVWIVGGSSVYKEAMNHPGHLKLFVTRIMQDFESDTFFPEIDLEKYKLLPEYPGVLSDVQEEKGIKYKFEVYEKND
Protocol: SKBR3, MDA-MB-231 and A17 cells were plated onto 100 mm cell culture dishes (2 × 10^6 cells/ dish). The day after, cells were treated with vehicle alone (DMSO) as control or increasing concentrations of compound 5 and compound 6 in DMEM supplemented with 2% FBS (Invitrogen, Carlsbad, CA) for 4 h or 12 h. Representative pictures of cells treated with compound 5 or 6 at the indicated concentration for 4 or 12 h just before to take cell lysates for the enzymatic tests are reported as supplemental files. Cell lysates were collected using Cell Culture Lysis Reagent (Promega, Madison, WI) supplemented with BSA (1%) and protease inhibitors. DHFR activity was assessed by spectrophotometric assay as reported elsewhere (Wang et al., [2020]) in which the reaction rate was followed by recording the decreasing absorbance at 340 nm due to oxidation of NADPH to NADP^+, using a Shimadzu UV-2450 spectrophotometer. When necessary, because of low protein content in the lysates, the DHFR enzymatic activity was measured by a discontinuous direct HPLC assay using an Agilent 1100 system. HPLC-DAD (Agilent 1100) was used to detect and quantify the presence of NADP^+, as one of the products of DHFR catalyzed reaction, in cell lysates. Fifty microliter of the cell lysate were incubated at 37°C in a reaction mixture containing 760 μl of buffer (0.05 M Hepes pH 7.3), 20 μl of NADPH 4 mM, and 20 μl of dihydrofolate (H2F) 4 mM. The samples for HPLC analysis were prepared as follows: 50 μl aliquots of each mixture were stopped at different times (0, 5, 10, 20, 30, and 60 min) by adding 25 μl of HClO4 1.2 M; after 10 min on ice and centrifugation for 5 min at 12,000 g, 60 μl of each supernatant were neutralized by adding 17.5 μl of K2CO3 0.79 M, kept on ice and centrifuged again. Fifty microliter of the supernatant obtained were directly injected into the reversed phase column for separations of reagents and products of the enzyme catalyzed reaction. The column used is a Supelcosil LC RP 18 (4.6 × 250 mm) with pre-column SupelGuard. The HPLC settings are the same reported in Wang et al. ([2020]). The amounts of product (NADP^+) were determined from the peak areas of the HPLC-separated compounds with reference to appropriate standards. One enzyme unit is defined as the amount of enzyme which catalyzes the reduction of 1 μmol of dihydrofolate, per minute, at 37°C. Enzyme activities were normalized by the protein content, determined by the Bradford assay (Bradford, [1976]).

A17 cells = test: MTT cell viability assay on A17 cells; assay type: cell-based, murine; details: A17, 48 h, ± S. D.
Description: as §1, §2, §3

[2] = system: thioredoxin reductase (TrxR); details: for Specific enzymatic activity of TrxR: SKBR3, 12 h treatment, 8 μM (maximum inhibition), control 4.07 ± 0.32; for TrxR residual activity: SKBR3 cells, versus control cells
Protocol: The assay was performed as previously reported (Galassi et al., [2012]) in 0.2 M Na, K-phosphate buffer (pH 7.4) containing 2 mM EDTA. The assay contained 0.12 mM NADPH and different amounts of cell lysate. The reaction was initiated by the addition of 3 mM 5,5′-dithiobis (2-nitrobenzoic acid) (DTNB) and the increase of absorbance was monitored at 412 nm over 5 min at 25°C.

[3] = SKBR3, 4 h treatment, control 0.72 ± 0.05
[4] = SKBR3, 12 h treatment, control 0.67 ± 0.10

| Substance | IC50 (MDA-MB231 cells) | activity against BLBC tumors transplanted in syngeneic mice compared with cisplatin (BLBC tumors) | Specific enzymatic activity of DHFR [1, 3] | Specific enzymatic activity of DHFR [1, 4] | IC50 (A17 cells) | Specific enzymatic activity of TrxR [2] | TrxR residual activity [2] |
| --- | --- | --- | --- | --- | --- | --- | --- |
| 4,5-dichloro-imidazolate-1yl-gold(I)-(triphenylphosphane) [Compound 6] | 3.46 ± 0.29 µM | much more active than cisplatin | 0.64 ± 0.06 mU/mg | 0.34 ± 0.01 mU/mg | 14.4 ± 0.7 µM | 1.51 ± 0.04 (8 μM) mU/mg | 49% |
| 4,5-dicyano-imidazolate-1yl-gold(I)-(triphenylphosphane) [Compound 5] | 7.03 ± 0.76 µM | much more active than cisplatin | 0.54 ± 0.04 mU/mg | 0.29 ± 0.05 mU/mg | 16.2 ± 0.59 µM | 1.98 ± 0.06 (8 μM) mU/mg | 37% |
